Source: patent US20220098197A1, “SALTS OF HETEROCYCLIC COMPOUND AND USE THEREOF” (priority 2019, published 2022)

Tests used:
RAW264.7 macrophages = experiment: In vitro ELISA assay, LPS- or PGD2-stimulated RAW264.7; assay type: cell-based, mouse; conditions: CT-NA 10 and 100 μM, dose-dependent
Procedure: For ELISA and RT-PCR, RAW 264.7 macrophages were acclimated to two 12-well plates at 70-80% confluence. Thereafter, the medium in the 12-well plate was replaced with serum-free RPMI-1640 medium for 10-12 hrs and then exposed to CT-NA (10 and 100 μM) for 1 hour. One hour later, one 12-well plate was treated with LPS (100 ng/ml) for 24 hrs, and the other was treated with PGD2 (10 μM) for 24 hrs. After the treatment, the supernatant of the treated cells was collected to measure the protein levels of TNF-α, IL-1β, IL-6, and KC using ELISA kits according to the method of the instructions. Subsequently, RNA samples from each treated plate were extracted and reverse-transcripted into cDNA with HiScript5xQRTSuperMix, and then subjected to RT-PCR using BioRad CFX96 Touch™ real-time PCR detection system (San Diego, Calif.). Similarly, total RNAs extracted from treated isolated peritoneal macrophages were subjected to analyze the mRNA levels of IL-10, TNF-α, IL-6 and KC. The primers used in the RT-PCR reaction were shown in Table 2. β-actin was used as an internal control. The RT-PCR reactions were triplicated and the relative expression of target mRNA was normalized by the respective β-actin.

RAW 264.7 macrophages = experiment: Cell viability (MTT) assay with CSE/PGD2; assay type: cell-based, mouse; conditions: 24 hrs
Procedure: The cell lines of RAW 264.7 macrophages and mouse leukemic mononuclear macrophages were purchased from American Type Culture Collection (ATCC, Manassas, Va., USA). RAW 264.7 macrophage was cultured in RPMI-1640 medium containing penicillin (100 U/ml), streptomycin (100 μg/ml) and 10% FBS. The cytotoxicity of CT-NA (0-100 μM) alone, and in a combination of PGD2 (0-100 μM) and CSE (1-10%) on RAW264.7 macrophage was assessed using methylthiazole-tetrazole (MTT) assay according to the manufacturer's protocol. Briefly, RAW 264.7 macrophages were seeded in a 96-well plate at a concentration of 4×10^5 cells/ml for 24 hrs, and then exposed to CT-NA (0-100 μM) at 37° C. for 1 hour. Next, RAW 264.7 macrophages were further exposed to CSE (4%) and PGD2 (10 μM) for 24 hrs, and then treated with MTT (5 mg/ml) at 37° C. for 4 hrs. Then, the supernatant of each well was replaced with DMSO (200 μl/well), and the absorbance at 570 nm was measured.

CS-induced ALI mice = experiment: CS-induced lung injury model: pulmonary histopathology (H&E); assay type: in vivo, Balb/c mice
Procedure: Model preparation: The mice were randomly divided into 5 groups (12 mice in each group), which were the control group (the mice were exposed to fresh air), the saline group (the mice were exposed to cigarette smoke), dexamethasone (Dex) group (1 mg/kg) (the mice were exposed to cigarette smoke), CT-NA 10 mg/kg group and CT-NA 30 mg/kg group (the mice were exposed to cigarette smoke). According to the grouping, the mice were intragastrically administered saline, Dex and CT-NA, respectively. Thereafter, the mice were exposed to fresh air or cigarette smoke generated from 3R4F research-grade cigarettes (containing about 600 mg TPM/m^3 and 29.9 mg nicotine/m^3) in a cuboid plastic box (65×50x×45 cm). Ten cigarettes were burned every day for seven days. After one cigarette was burned, the next cigarette was ignited. The daily body weight and general condition of the mice were checked. 24 hrs after the last exposure to the cigarette smoke, the partial pressure of oxygen (PO2) of all mice was measured by the Moor VMS-OXY™ measuring instrument, which was used to measure the oxygenated/deoxygenated hemoglobin concentration and oxygen saturation (percentage) in the microcirculation at the wavelength range of 500 to 650 nm. Then, all mice were euthanized to collect bronchoalveolar lavage fluid (BALF) for measuring the total number of inflammatory cells, cytokine levels and albumin concentration. […]

With `CN([C@@H]1CCc2c(CC(=O)[O-])c3cccnc3n2C1)S(=O)(=O)c1ccc(F)cc1.[Na+]` [Sodium salt hydrate] as the compound, how does the “protein expression of IL-1β, TNF-α, IL-6 and KC in response to LPS” value (RAW264.7 macrophages; LPS (100 ng/ml) 24 hrs) read?
Its value is “inhibited”.

What about the “protein expression of IL-1β, TNF-α, IL-6 and KC in response to PGD2” value (RAW264.7 macrophages; PGD2 (10 μM) 24 hrs) of the same compound?
The value was “inhibited”.

And the “cytotoxicity (MTT), CSE plus CT-NA” value (RAW 264.7 macrophages; CSE 4% plus CT-NA up to 100 μM)?
Its value is “non-toxic”.

And the “cytotoxicity (MTT), PGD2 plus CT-NA” value (RAW 264.7 macrophages; PGD2 (10 μM) plus CT-NA up to 100 μM)?
The value was “non-toxic”.

And the mean pathological scores (CS-induced ALI mice; CT-NA 10 and 30 mg/kg, Dex 1 mg/kg, 5-point scoring, dose-dependent, p<0.01)?
Its mean pathological scores is “considerably reduced”.

What about the “CS-induced pulmonary histopathological changes” value (CS-induced ALI mice; pretreatment with CT-NA 10 and 30 mg/kg or Dex 1 mg/kg, H&E) of the same compound?
Its value is “strikingly improved”.
